For one data set, the target named is Proteinase K (Parengyodontium album, UniProt P06873). Nature of the data set: Protease resistance, Proteinase K treatment with HPLC analysis. The class given is in vitro ADME. Particulars: analytical HPLC. On the procedure: Proteinase K was used for testing the resistance of the designed peptides to proteases, since Proteinase K, a serine protease with broad-spectrum cleavage activity that preferentially cleaves aliphatic and aromatic amino acid residues, is widely used in the literature to determine the protease resistance of antimicrobial peptides (Lucio et al. [2017], Wang et al. [2019]). Afterwards, HPLC characterization was performed to understand the effect of Proteinase K on peptides.
Chain of Proteinase K (P06873 106-384): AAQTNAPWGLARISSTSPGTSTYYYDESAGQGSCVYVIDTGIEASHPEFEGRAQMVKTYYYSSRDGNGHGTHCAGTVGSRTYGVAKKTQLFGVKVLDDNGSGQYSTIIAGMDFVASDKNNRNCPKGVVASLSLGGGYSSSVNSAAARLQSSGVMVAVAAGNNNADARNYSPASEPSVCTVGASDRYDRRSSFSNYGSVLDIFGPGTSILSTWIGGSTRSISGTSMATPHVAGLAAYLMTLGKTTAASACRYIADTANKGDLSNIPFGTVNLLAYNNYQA

Data set [1] deals with MRSA biofilm. Nature of the data set: Antibiofilm activity, CoMIC method. Format: cell-based, Methicillin-resistant S. aureus. Particulars: peptides added just before the start of biofilm formation. On the procedure:
Ninety microliters of 0.5 McF Methicillin-resistant S. aureus (MRSA) (1.5×10^8 CFU/mL) in Congo Red Broth media with fructose was transferred into wells. Plates were incubated at 37°C. At the time just before the start of biofilm formation as optimized in Fig. 4, 10 µL of 1:2 serial dilutions of the antimicrobial peptides (2560–0 µg/mL) was added in wells. So that, final concentrations of peptides were 256–0 µg/mL. Incubation of media continued overnight. Then, wells were evaluated according to their black color formation.

The test system of another data set is VRE. Format: cell-based, Vancomycin-resistant Enterococcus. An excerpt: (§1) NET1, NET2, NET3, and NET4 peptide antibiotics were used in the experiments. For the purpose of the study, both clinical isolates Methicillin-Resistant S. aureus (MRSA), Vancomycin-resistant Enterococcus (VRE), E. coli ER2566, E. coli 13846 bacteria and ATCC strains S. aureus and E. coli bacteria were used in the MIC study. All strains used in this study have been deposited in a strain collection of the Research Laboratory of Acibadem Mehmet Ali Aydinlar University. For experiment 0.5 McFarland bacterial suspension was prepared in Müeller Hinton Broth (MHB) media. In the 96-well plate, serial dilutions of peptide antibiotics starting from 512 to 0 μg/mL were made in MHB media and added 5 µl of bacterial suspensions. After incubated overnight at 37°C, results were evaluated according to turbidity (Teh et al. [2017]). Ampicillin was used as positive controls.

The next data set relates to HaCaT cell line. Nature of the data set: in vitro. Format: cell-based. An excerpt:
(§2) MTT Cell Proliferation Kit (Sigma), a colorimetric method, was used for this test to evaluate the damage that peptides can cause in eukaryotic cells and all cell lines used in this study have been deposited in a collection of the Research Laboratory of Acibadem Mehmet Ali Aydinlar University. The cell lines of 3T3 (ATCC CRL-1658) and HaCaT (ATCC PCS-200-011) were revived under appropriate culture conditions and made ready for the experiment. The final concentration of peptides reached 64 to 0.5 μg/mL. Samples were worked in triplicates for each concentration. Cells incubated without peptide-treatment under the same conditions were used as a control. Magainin II, a known natural AMP that has no cytotoxic effects, was used as a positive control (Bacalum and Radu [2015]). The results were analyzed by reading them with a 96-well plate reader at 550 and 690 nm.

A short description of the next data set: in vitro. Format: cell-based.
Source text: as §2

A further data set relates to 3T3 cell line. As to the kind of experiment: in vitro. Format: cell-based.
Source text: as §2

The subject of the next data set is E. coli NTCC13846. The class given is cell-based.
Source text: as §1

The subject of a further data set is E. coli ATCC25922. Format: cell-based.
Source text: as §1

In a further data set the test system is S. aureus ATCC25923. The class given is cell-based.
Source text: as §1

The test system of another data set is S. aureus ATCC29213. The class given is cell-based.
Source text: as §1

The next data set relates to E. coli ER2566. The class given is cell-based.
Source text: as §1

The test system of the next data set is MRSA. The class given is cell-based, Methicillin-Resistant S. aureus.
Source text: as §1

A further data set concerns erythrocytes. Format: cell-based. Here is the method:
Hemolytic activity assays were carried out using erythrocytes, using triton X-100 as lysis control agent. Hemolytic activities were analyzed by reading each well with a plate reader spectrophotometer device at 414 nm and the % lysis rate was calculated in Microsoft Excel according to the following formula (Eren et al. [2008]). Lysis%=[OD414-OD414blank]/[OD414totallysis-OD414blank]×100

Data set [2] relates to MRSA biofilm. Nature of the data set: Antibiofilm activity, conventional crystal violet (CV) method. The class given is cell-based, Methicillin-resistant S. aureus. On the procedure: There was 90 µL of 10^6 CFU/mL MRSA in MHB media with fructose transferred into wells. Then, 10 µL of 1:2 serial dilutions of the antimicrobial peptides (1280–0 µg/mL) was added in wells. So that, final concentrations of peptides were 128–0 µg/mL. Plates were incubated at 37°C overnight. After overnight incubation, they were analyzed with conventional CV method. For this purpose, the bacterial cultures were removed, and wells were washed with distilled water. 200 µl of 1% CV dye was added to each well and incubated at room temperature for 15 min in the dark. Then, CV dye was removed, and wells were washed with water. After dried the plate in an oven at 45–50°C, 33% acetic acid was added into wells to dissolve the dye and wells were spectrophotometrically read by Varioscan (Thermo, USA) at 590 nm (Stepanović et al. [2000]). Biofilm inhibiton rates (%) were calculated by the following formula (Liu et al. [2021]): (1-A590ofwellstreatedwithpeptides/[…])×100
Before this calculation, the values obtained from all wells were subtracted from the value from the empty wells (Blank).

The subject of another data set is E. coli. As to the kind of experiment: SEM of cell membrane integrity. Format: cell-based. Particulars: 16 µg/mL peptide, 10^5 CFU/mL, 37°C, 4–5 h. On the procedure: The effect of NET1 peptides on the integrity of E. coli cell membranes was shown by SEM (Wang et al. [2018]). […] Peptide molecules were mixed with 10^5 CFU/mL of E. coli and incubated at 37°C for 4–5 h. […] After incubation, 20 µL of the mixture containing peptide antibiotics and bacteria was applied to a dialysis membrane. Then, it was fixed and imaged by the SEM microscope. As a negative control, bacteria which was not treated with peptide molecules were also used.

The subject of a further data set is Staphylococcus aureus. Details: method as in Dean et al. [2011]. The note with it: ref Dean et al. [2011]; cited from earlier work.

In brackets after ≈: the same amount, converted by molar mass. Non-standard residues stand in square brackets, D forms with d. Residues, ends and D or L forms follow the SMILES beside them. No end group written: not given here.

One may read the MIC as the least concentration at which growth counts as inhibited. Low values mean inhibition by little substance, high ones a need for much substance. The IC50 is the concentration that gives 50% inhibition. Lower therefore signals greater potency. Consider `CC(C)C[C@@H](NC(=O)[C@H](CCCNC(=N)N)NC(=O)[C@@H](CC(C)C)NC(=O)[C@@H](CC(C)C)NC(=O)[C@@H](CC(C)C)NC(=O)[C@@H](N)CCCNC(=N)N)C(=O)N[C@H](CC(C)C)C(=O)N[C@@H](CCCNC(=N)N)C(=O)N[C@@H](CCCNC(=N)N)C(=O)N[C@H](CC(C)C)C(=O)N[C@H](CC(C)C)C(=O)N[C@@H](CCCNC(=N)N)C(=O)N[C@H](CC(C)C)C(=O)N[C@H](CC(C)C)C(=O)N[C@H](CC(C)C)C(=O)N[C@@H](CCCNC(=N)N)C(N)=O` [NET1, RLLLRLLRRLLRLLLR-NH2] (H-R[dL][dL][dL]R[dL][dL]RR[dL][dL]R[dL][dL][dL]R-NH2; N-terminus assumed), for which the “resistance to proteases (HPLC after proteinase K treatment)” value at Proteinase K is listed as “not fractionated by proteases”. In addition, in the data set with MRSA biofilm [1], the “Peptide concentration inhibiting the biofilm at 100%, CoMIC” value was 64 µg/mL. The MIC is recorded as 0.5 µg/mL (≈ 0.24 µM) in the data set with VRE; 4 µg/mL (≈ 1.92 µM) in the data set on E. coli NTCC13846; 2 µg/mL (≈ 0.959 µM) with E. coli ATCC25922; 4 µg/mL (≈ 1.92 µM) against S. aureus ATCC25923; 2 µg/mL (≈ 0.959 µM) against S. aureus ATCC29213; less than 0.25 µg/mL against E. coli ER2566. This compound yielded a minimum inhibitory concentration (MIC) against MRSA of 2 µg/mL (≈ 0.959 µM). Moreover, the “IC50 value as times the MIC value” in the data set on HaCaT cell line was 16-32 times. In addition, the “therapeutic index for cytotoxic activities” value in the data set with HaCaT cell line is 32; in the data set on 3T3 cell line it was 16. Besides, the IC50 in “in vitro” (human) was found to be 64 µg/mL (≈ 30.7 µM); in the data set “in vitro” (mouse), 32 µg/mL (≈ 15.3 µM). In the data set with erythrocytes, the “HC50 value as times the MIC value” is on record as 16–32 times. In addition, the “therapeutic index for hemolytic activities” value with erythrocytes is given as 32. Further, the “concentration that provided over 50% biofilm inhibition” value in the data set with MRSA biofilm [2] (CV method) was 2 µg/mL. In addition, the “Peptide concentration inhibiting the biofilm at 100%, Crystal Violet” value with MRSA biofilm [2] (peptides added at the very beginning of culture) was determined as 4 µg/mL. Moreover, the “effect on E. coli cells seen by SEM” value in the data set with E. coli was “lethal to E. coli”.

Turning to “LL-37: LL-37 peptide, only D-form compared with only L-form in a cited study (LLGDFFRKSKEKIGKEFKRIVQRIKDFLRNLVPRTES; not fully specified; also: all-D and all-L forms; UniProt P49913 134-170, looked up)”, in the data set with Staphylococcus aureus, the “activity of the D-form, times lower than L-form” value is reported as 10 times.

Source of the values: article PMC11068671, “New-generation biofilm effective antimicrobial peptides and a real-time anti-biofilm activity assay: CoMIC” (Applied Microbiology and Biotechnology, 2024).
